Laboratory results: patent publication US20240018133A1, “MODULATORS OF THE INTEGRATED STRESS PATHWAY” (Calico Life Sciences LLC, priority 2019, published 2024)
pEC50: −log10 of the molar value.

These molecules were tested on ATF4 luciferase reporter (human full-length ATF4 5'-UTR fused to firefly luciferase) in HEK293T cells (assay: ATF4-Luc assay (in vitro model of VWMD): HEK293T cells carrying ATF4 luciferase reporter, tunicamycin-treated). Conditions: Homo sapiens, HEK-293T, 1 μg/mL tunicamycin, 7 hours, One Glo luminescence.
Format: cell-based
Experimental: In order to test exemplary compounds of the invention in a cellular context, a stable VWMD cell line was first constructed. The ATF4 reporter was prepared by fusing the human full-length ATF4 5′-UTR (NCBI Accession No. BC022088.2) in front of the firefly luciferase (FLuc) coding sequence lacking the initiator methionine as described in Sidrauski et al (eLife 2013). The construct was used to produce recombinant retroviruses using standard methods and the resulting viral supernatant was used to transduce HEK293T cells, which were then subsequently selected with puromycin to generate a stable cell line.
HEK293T cells carrying the ATF4 luciferase reporter were plated on polylysine coated 384-well plates (Greiner Bio-one) at 30,000 cells per well. Cells were treated the next day with 1 μg/mL tunicamycin and 200 nM of a compound of Formula (I) for 7 hours. Luminescence was measured using One Glo (Promega) as specified by the manufacturer. Cells were maintained in DMEM with L-glutamine supplemented with 10% heat-inactivated FBS (Gibco) and Antibiotic-Antimycotic solution (Gibco).
Table 2 below summarizes the EC50 data obtained using the ATF4-Luc assay for exemplary compounds of the invention.
Molecule `O=C(COc1ccc(Cl)c(F)c1)NC12CC(NC(=O)C3CC(NC4COC4)c4cc(Cl)ccc4O3)(C1)C2` (centres unmarked) [Compound 349, 6-chloro-N-{3-[2-(4-chloro-3-fluorophenoxy)acetamido]bicyclo[1.1.1]pentan-1-yl}-4-[(oxetan-3-yl)amino]-3,4-dihydro-2H-1-benzopyran-2-carboxamide] has a pEC50 of 7.30 to 8.00. In the case of `O=C(COc1ccc(Cl)c(F)c1)NC12CC(NC(=O)C3CC(O)c4ccc(C(F)(F)F)cc4O3)(C1)C2` (centres unmarked) [Compound 243, N-{3-[2-(4-chloro-3-fluorophenoxy)acetamido]bicyclo[1.1.1]pentan-1-yl}-4-hydroxy-7-(trifluoromethyl)-3,4-dihydro-2H-1-benzopyran-2-carboxamide], the pEC50 was > 8.00. For `O=C(COc1ccc(Cl)c(F)c1)NC12CC(NC(=O)C3=Cc4ccc(Cl)cc4OC3)(C1)C2` [Compound 317, 7-chloro-N-{3-[2-(4-chloro-3-fluorophenoxy)acetamido]bicyclo[1.1.1]pentan-1-yl}-2H-1-benzopyran-3-carboxamide], the pEC50 was 7.30 to 8.00. For `O=C(COc1ccc(F)c(F)c1)NC12CC(NC(=O)[C@H]3C[C@@H](O)c4cc(Cl)ccc4O3)(C1)C2` [Compound 277, (2R,4R)-6-chloro-N-{3-[2-(3,4-difluorophenoxy)acetamido]bicyclo[1.1.1]pentan-1-yl}-4-hydroxy-3,4-dihydro-2H-1-benzopyran-2-carboxamide], the pEC50 was > 8.00. With `O=C(COc1ccc(Cl)c(F)c1)NC12CC(NC(=O)[C@@H]3C[C@H](NCCO)c4cc(Cl)ccc4O3)(C1)C2` [Compound 309, (2S,4S)-6-chloro-N-{3-[2-(4-chloro-3-fluorophenoxy)acetamido]bicyclo[1.1.1]pentan-1-yl}-4-[(2-hydroxyethyl)amino]-3,4-dihydro-2H-1-benzopyran-2-carboxamide] the pEC50 was > 8.00. Work on `CC1(C(=O)NC23CC(NC(=O)COc4ccc(Cl)c(F)c4)(C2)C3)CCc2cc(Cl)ccc2O1` (centres unmarked) [Compound 240, 6-chloro-N-{3-[2-(4-chloro-3-fluorophenoxy)acetamido]bicyclo[1.1.1]pentan-1-yl}-2-methyl-3,4-dihydro-2H-1-benzopyran-2-carboxamide] yielded a pEC50 of 7.30 to 8.00. `O=C(NC12CCC(NC(=O)C3CC(=O)c4cc(Cl)ccc4O3)(CC1)[C@@H](O)C2)c1cc(C(F)F)no1` (stereo partly drawn) [Compound 214, N-{(3S)-4-[(6-chloro-4-oxo-3,4-dihydro-2H-1-benzopyran-2-carbonyl)amino]-3-hydroxybicyclo[2.2.2]octan-1-yl}-3-(difluoromethyl)-1,2-oxazole-5-carboxamide] gave a pEC50 of 6.30 to 6.60. `O=C(NC12CCC(NC(=O)[C@H]3C[C@@H](O)c4cc(Cl)ccc4O3)(CC1)[C@@H](O)C2)c1cc(C(F)F)no1` (single isomer, unassigned) [Compound 215] gave a pEC50 of 7.30 to 8.00. With `C[C@@]1(C(=O)NC23CC(NC(=O)COc4ccc(Cl)c(F)c4)(C2)C3)Cc2cc(Cl)ccc2O1` [Compound 257, (2S)-5-chloro-N-{3-[2-(4-chloro-3-fluorophenoxy)acetamido]bicyclo[1.1.1]pentan-1-yl}-2-methyl-2,3-dihydro-1-benzofuran-2-carboxamide] the pEC50 was < 5.70. With `O=C(COc1ccc(Cl)c(Cl)c1)NC12CC(NC(=O)[C@H]3CC(=O)c4cc(F)c(F)cc4O3)(C1)C2` [Compound 207E, (2R)—N-{3-[2-(3,4-dichlorophenoxy)acetamido]bicyclo[1.1.1]pentan-1-yl}-6,7-difluoro-4-oxo-3,4-dihydro-2H-1-benzopyran-2-carboxamide] the pEC50 was > 8.00. `COC1CC(C(=O)NC23CC(NC(=O)COc4ccc(Cl)c(F)c4)(C2)C3)Oc2ccc(F)cc21` (centres unmarked) [Compound 330, N-{3-[2-(4-chloro-3-fluorophenoxy)acetamido]bicyclo[1.1.1]pentan-1-yl}-6-fluoro-4-methoxy-3,4-dihydro-2H-1-benzopyran-2-carboxamide] was tested, and the pEC50 was 6.60 to 7.30. In the case of `O=C(COc1ccc(Cl)c(F)c1)NC12CC(NC(=O)c3cc(=O)c4cc(Cl)ccc4o3)(C1)C2` [Compound 318, 6-chloro-N-{3-[2-(4-chloro-3-fluorophenoxy)acetamido]bicyclo[1.1.1]pentan-1-yl}-4-oxo-4H-1-benzopyran-2-carboxamide], the pEC50 was > 8.00. In the case of `C[C@]1(C(=O)NC23CC(NC(=O)COc4ccc(Cl)c(F)c4)(C2)C3)Oc2ccc(Cl)cc2C1O` (stereo partly drawn) [Compound 262, (2S)-5-chloro-N-{3-[2-(4-chloro-3-fluorophenoxy)acetamido]bicyclo[1.1.1]pentan-1-yl}-3-hydroxy-2-methyl-2,3-dihydro-1-benzofuran-2-carboxamide], the pEC50 was < 5.70. For `CS(=O)(=O)NC1CC(C(=O)NC23CC(NC(=O)COc4ccc(Cl)c(F)c4)(C2)C3)Oc2ccc(Cl)cc21` (centres unmarked) [Compound 219, 6-chloro-N-{3-[2-(4-chloro-3-fluorophenoxy)acetamido]bicyclo[1.1.1]pentan-1-yl}-4-[(methanesulfonyl)amino]-3,4-dihydro-2H-1-benzopyran-2-carboxamide], the pEC50 was > 8.00. For `CC(C)(C)OC(=O)CN1C[C@@H](C(=O)NC23CCC(NC(=O)COc4ccc(Cl)c(F)c4)(CC2)[C@@H](O)C3)Oc2ccc(Cl)cc21` [Compound 184, tert-butyl [(2S)-6-chloro-2-({(3S)-4-[2-(4-chloro-3-fluorophenoxy)acetamido]-3-hydroxybicyclo[2.2.2]octan-1-yl}carbamoyl)-2,3-dihydro-4H-1,4-benzoxazin-4-yl]acetate], the pEC50 was 6.30 to 6.60. `O=C(NC12CCC(NC(=O)[C@H]3C[C@@H](O)c4cc(Cl)ccc4O3)(CC1)CC2)c1ccc(OC(F)(F)F)cn1` [Compound 361, N-(4-{[(2R,4R)-6-chloro-4-hydroxy-3,4-dihydro-2H-1-benzopyran-2-carbonyl]amino}bicyclo[2.2.2]octan-1-yl)-5-(trifluoromethoxy)pyridine-2-carboxamide] showed a pEC50 of 6.60 to 7.30. For `O=C(COc1ccc(Cl)c(F)c1)NC12CC(NC(=O)[C@@H]3C[C@H](O)c4cc(F)c(Cl)cc4O3)(C1)C2` (single isomer, unassigned) [Compound 205], the pEC50 was > 8.00. In the case of `O=C(COc1ccc(Cl)c(F)c1)NC12CC(NC(=O)[C@H]3C[C@H](NCC(F)(F)F)c4cc(Cl)ccc4O3)(C1)C2` [Compound 327, (2R,4S)-6-chloro-N-{3-[2-(4-chloro-3-fluorophenoxy)acetamido]bicyclo[1.1.1]pentan-1-yl}-4-[(2,2,2-trifluoroethyl)amino]-3,4-dihydro-2H-1-benzopyran-2-carboxamide], the pEC50 was 6.60 to 7.30. Work on `O=C(NC12CC(NC(=O)[C@H]3C[C@@H](O)c4cc(Cl)ccc4O3)(C1)C2)c1cnc(C2CN(CC(F)(F)F)C2)o1` [Compound 388, N-(3-{[(2R,4R)-6-chloro-4-hydroxy-3,4-dihydro-2H-1-benzopyran-2-carbonyl]amino}bicyclo[1.1.1]pentan-1-yl)-2-[1-(2,2,2-trifluoroethyl)azetidin-3-yl]-1,3-oxazole-5-carboxamide] yielded a pEC50 of 6.30 to 6.60. With `O=C(COc1ccc(Cl)c(F)c1)NC12CC(NC(=O)C3CNc4cc(Cl)ccc4O3)(C1)C2` (centres unmarked) [Compound 113, 6-chloro-N-{3-[2-(4-chloro-3-fluorophenoxy)acetamido]bicyclo[1.1.1]pentan-1-yl}-3,4-dihydro-2H-1,4-benzoxazine-2-carboxamide] the pEC50 was > 8.00. In the case of `O=C(COc1ccc(Cl)c(F)c1)NC12CC(NC(=O)C3CC(O)c4cc(F)ccc4O3)(C1)C2` (centres unmarked) [Compound 300, N-{3-[2-(4-chloro-3-fluorophenoxy)acetamido]bicyclo[1.1.1]pentan-1-yl}-6-fluoro-4-hydroxy-3,4-dihydro-2H-1-benzopyran-2-carboxamide], the pEC50 was > 8.00. `O=C(COc1cc(F)c2cn[nH]c2c1)NC12CC(NC(=O)[C@H]3C[C@@H](O)c4cc(Cl)ccc4O3)(C1)C2` [Compound 351, (2R,4R)-6-chloro-N-(3-{2-[(4-fluoro-1H-indazol-6-yl)oxy]acetamido}bicyclo[1.1.1]pentan-1-yl)-4-hydroxy-3,4-dihydro-2H-1-benzopyran-2-carboxamide] was tested, and the pEC50 was > 8.00. In the case of `O=C(COc1ccc(F)c(F)c1)NC12CC(NC(=O)[C@H]3C[C@@H](O)c4cc(F)c(F)cc4O3)(C1)C2` [Compound 272, (2R,4R)—N-{3-[2-(3,4-difluorophenoxy)acetamido]bicyclo[1.1.1]pentan-1-yl}-6,7-difluoro-4-hydroxy-3,4-dihydro-2H-1-benzopyran-2-carboxamide], the pEC50 was > 8.00. For `O=C(COc1ccc(Cl)c(F)c1)NC12CC(NC(=O)[C@H]3CC(=O)c4ccccc4O3)(C1)C2` [Compound 268, (2R)—N-{3-[2-(4-chloro-3-fluorophenoxy)acetamido]bicyclo[1.1.1]pentan-1-yl}-4-oxo-3,4-dihydro-2H-1-benzopyran-2-carboxamide], the pEC50 was 7.30 to 8.00. With `Cc1cc2c(cc1F)C(O)CC(C(=O)NC13CC(NC(=O)COc4ccc(Cl)c(F)c4)(C1)C3)O2` (centres unmarked) [Compound 347, N-{3-[2-(4-chloro-3-fluorophenoxy)acetamido]bicyclo[1.1.1]pentan-1-yl}-6-fluoro-4-hydroxy-7-methyl-3,4-dihydro-2H-1-benzopyran-2-carboxamide] the pEC50 was > 8.00. For `CCC1(O)CC(C(=O)NC23CC(NC(=O)COc4ccc(Cl)c(F)c4)(C2)C3)Oc2ccc(Cl)cc21` (centres unmarked) [Compound 297, 6-chloro-N-{3-[2-(4-chloro-3-fluorophenoxy)acetamido]bicyclo[1.1.1]pentan-1-yl}-4-ethyl-4-hydroxy-3,4-dihydro-2H-1-benzopyran-2-carboxamide], the pEC50 was > 8.00.
